According to US10273290B2, “Hydrocarbon double-stapled stabilized HIV-1 GP41 heptad repeat domain peptides” (DANA-FARBER CANCER INSTITUTE, INC., priority 2009, dated 2019):
Entries after “also recorded” stand apart in the source; their conditions may differ. Where two headings read alike, the source gives them in different places. Bridge positions count the residues as written; N and C are the ends. Square brackets hold non-standard residues; d marks the D form. Ends that are not written are not given here. Peptide text beside a SMILES is read from it. S5 = C=CCCC[C@](C)(N)C(=O)O; Nle = CCCC[C@H](N)C(=O)O

Columns and labels:
chymotrypsin = target: T1, chymotrypsin (Bos taurus, UniProt P00766); experiment: Protease resistance assay, chymotrypsin (LC/MS); assay type: in vitro ADME; conditions: pH 7.4, 0.5 chymotrypsin, peptide 25 μM
T1 construct: purchased Sigma
Protocol: The DAD signal was set to 280 nm with an 8 nm bandwidth and MSD set to scan mode with one channel at (M+2H)/2, +1 mass units and the other at (M+3H)/3, +1 mass units. Integration of each MSD signal yielded areas under the curve of >10^8 counts. Reaction samples were composed of 5 μL peptide in DMSO (1 mM stock) and 195 μL of buffer consisting of 50 mM phosphate buffer pH 7.4 containing 2 mM CaCl2. Upon injection of the 0 hr time point sample, 2 μL of 50 ng/μL chymotrypsin (Sigma) was added and the amount of intact peptide quantitated by serial injection over time. An internal control of acetylated tryptophan carboxamide at a concentration of 100 μM was used to normalize each MSD data point. A plot of MSD area versus time yielded an exponential decay curve and half-lives were determined by nonlinear regression analysis using Prism software (GraphPad).

[1] = tested on: HIV-1 strains HXBc2, ADA, and HXBc2P 3.2; experiment: Luciferase-based HIV-1 infectivity assay, three strains; assay type: cell-based
Protocol: Also the direct inhibitory activity of modified polypeptides and the antibodies targeted thereto can be quantified based upon their capacity to directly block HIV infection of CD4-positive and CCR5-expressing canine thymus cells. […] The identical experiment is performed with the amphotropic murine leukemia virus (AMLV), to monitor for any nonspecific effects of the modified polypeptides or antibodies.
(§1) HIV-1 infectivity assays were performed using known methods (Madani et al., 2007 Inhibition of human immunodeficiency virus envelope glycoprotein-mediated single cell lysis by low-molecular-weight antagonists of viral entry. J Virol, 81: 532-538; and Si et al., 2001 Envelope glycoprotein determinants of neutralization resistance in a simian-human immunodeficiency virus (SHIV-HXBc2P 3.2) derived by passage in monkeys. J Virol, 75:4208-4218; both incorporated herein by reference). […] Virus-containing supernatants were harvested 24-30 hr after transfection, filtered, aliquoted, and stored at −80° C. Target cells were seeded at a density of 6×10^3 cells/well in 96-well plates 24 hours prior to infection. Cf2Th-CD4-CCR5 cells were used for infections by viruses with the ADA, YU2, and A-MLV envelope glycoproteins, and Cf2Th-CD4-CXCR4 cells used for HXBc2, HXBc2P 3.2, and A-MLV. On the day of infection, the structured peptides (0-3 μM) were added to recombinant viruses (10,000 RT units) to a final volume of 50 μL and incubated at 37° C. for 30 min. Media was then removed and the target cells incubated with virus-peptide mixture for 48 hours at 37° C. The media was again removed and the cells lysed with 30 μL of passive lysis buffer (Promega) and three freeze-thaw cycles.
Recombinant HIV-1 bearing the envelope glycoproteins from three distinct HIV-1 strains, HXBc2, ADA, and HXBc2P 3.2, and a negative control virus bearing the amphotropic murine leukemia virus (A-MLV) envelope glycoproteins, were evaluated.

pepsin = experiment: Protease resistance assay, pepsin at pH 2; conditions: for Half-life (minutes), pepsin: pepsin at 0.5 ng/μL, peptide 25 μM, acidic conditions
Protocol: The DAD signal was set to 280 nm with an 8 nm bandwidth and MSD set to scan mode with one channel at (M+2H)/2, +1 mass units and the other at (M+3H)/3, +1 mass units. […] Reaction samples were composed of 5 μL peptide in DMSO (1 mM stock) and 195 μL of buffer consisting of 50 mM phosphate buffer pH 7.4 containing 2 mM CaCl2. Upon injection of the 0 hr time point sample, 2 μL of 50 ng/μL chymotrypsin (Sigma) was added and the amount of intact peptide quantitated by serial injection over time. An internal control of acetylated tryptophan carboxamide at a concentration of 100 μM was used to normalize each MSD data point. A plot of MSD area versus time yielded an exponential decay curve and half-lives were determined by nonlinear regression analysis using Prism software (GraphPad). The assay was also performed using trypsin and pepsin in their appropriate buffer conditions.

4E10 antibody = experiment: Competitive 4E10 antibody binding by ELISA; set-up: species or system human; conditions: competition with wild-type MPER peptide probe
Protocol: Half maximal inhibitory concentrations (IC50s) were determined by competitive enzyme-linked assay (ELISA) using a constant concentration of biotinylated peptide and 4E10-IgG with a variable concentration of gp41 peptides. Microwells were coated overnight at 4° C. with 50 μl of PBS containing neutravidin (4 μg/ml). Wells were washed twice with PBS containing 0.05% Tween 20, and blocked with 4% non-fat dry milk (NFDM) in PBS for 45 min at 37° C. Meanwhile, a mixture of a biotinylated 4E10-peptide epitope, biotin-PEG2-[…], (20 nM), IgG 4E10 (0.2 nM), and the competing peptide analogue (threefold dilution series starting at 10 μM) in 0.4% NFDM, 0.02% Tween and PBS was incubated in a separate 96-well plate at 37° C. for 2 h. After washing the blocked plate, the mixture of 4E10, biotinylated peptide and competing structured HIV-1 gp41 peptide was added to the wells. After 20 min at room temperature, the wells were washed five times, and a 1:500 dilution of Goat Anti-Human IgG F(ab′)2, Peroxidase Conjugate was added. […] After 20 min, wells containing TMB solution were stopped by adding 50 μl of H2SO4 (2 M), and the absorbance at 450 nm was read on a microplate reader (Molecular Devices). The concentration of competitor peptide corresponding to a half-maximal signal (IC50) was determined by interpolation of the resulting binding curve using GraphPad Prism. […]

Chymotrypsin, pH 7 [2] = experiment: Chymotrypsin, pH 7
Description: (§2) Title: Chymotrypsin, pH 7
First reader's note: The table also serves as the legend of the plot of fraction intact over time; the line and marker symbols are left out.

Chymotrypsin, pH 7 [3] = experiment: Chymotrypsin, pH 7; remark: listed apart in the source
Description: Table printed on a drawing sheet, FIG. 17D
as §2
First reader's note: The table also serves as the legend of the plot below it (fraction intact over time); the plot symbols before the compound names are left out.

[4] = tested on: HIV-1 HXBc2 virus bearing HR1 double mutations V38A/N42T and V38E/N42S; experiment: HIV-1 infectivity assay, enfuvirtide-resistant HR1 double mutants; assay type: cell-based
Protocol: as §1

[5] = Circular dichroism, α-helical content; assay type: physicochemical
Protocol: The α-helicity of stapled modified polypeptides was compared to their unmodified counterparts by circular dichroism. CD spectra were obtained on an Aviv spectropolarimeter at 20° C. using the following standard measurement parameters: wavelength, 190-260 nm; step resolution, 0.5 nm; speed, 20 nm/sec; accumulations, 10; response, 1 sec; bandwidth, 1 nm; path length, 0.1 cm. The α-helical content of each peptide was calculated by dividing the mean residue ellipticity [θ]222obs, by the reported [θ]222obs for a model helical peptide (Forood, B., E. J. Feliciano, and K. P. Nambiar, PNAS, 1993. 90(3): p. 838-842; J. Martin Scholtz, Biopolymers, 1991. 31(13): p. 1463-1470; Lawless, M. K., et al., Biochemistry, 1996. 35(42): p. 13697-13708) or using, for example, the Aviv machine using CDNN software developed by Brohm in order to deduce five different secondary structure fractions (helix, parallel and antiparallel beta-sheet, beta-turn and random coil). Protein Engineering, 1992. 5(3); p. 191-195
In order to evaluate secondary structure improvements of hydrocarbon-stapled peptides, we record and analyze circular dichroism (CD) spectra on an Aviv Biomedical spectrometer (model 410), as described above. […] The CD spectra are initially plotted as wavelength versus millidegree. […] After conversion to mean residue ellipticity, percent α-helicity can be calculated using the equation, % helicity=100×[θ]222/^max[θ]222, where ^max[θ]222=−40,000×[1−(2.5/number of amino acid residues)]. We also employ the curve-fitting CDDN software that is bundled with our spectrometer to calculate the relative fractions of secondary structure including α-helix, parallel and antiparallel β-sheet, β-turn and random coil.

CCCC[C@H](NC(C)=O)C(=O)N[C@H](C(=O)N[C@@H](Cc1c[nH]c2ccccc12)C(=O)N[C@@H](CCCC)C(=O)N[C@@H](CCC(=O)O)C(=O)N[C@@H](Cc1c[nH]c2ccccc12)C(=O)N[C@@]1(C)CCCC=CCCC[C@@](C)(C(=O)N[C@@H](CC(N)=O)C(=O)N[C@@H](Cc2ccc(O)cc2)C(=O)N[C@H](C(=O)N[C@@H](CO)C(=O)N[C@@H](CC(C)C)C(=O)N[C@H](C(=O)N[C@@H](Cc2c[nH]cn2)C(=O)N[C@@H](CO)C(=O)N[C@@H](CC(C)C)C(=O)N[C@H](C(=O)N[C@@H](CCC(=O)O)C(=O)N[C@@H](CCC(=O)O)C(=O)N[C@@H](CO)C(=O)N[C@@H](CCC(N)=O)C(=O)N[C@@H](CC(N)=O)C(=O)N[C@@H](CCC(N)=O)C(=O)N[C@@]2(C)CCCC=CCCC[C@@](C)(C(=O)N[C@@H](CCC(N)=O)C(=O)N[C@@H](CCC(=O)O)C(=O)N[C@@H](CC(C)C)C(=O)N[C@@H](CC(C)C)C(=O)N[C@@H](CCC(=O)O)C(N)=O)NC(=O)[C@H](CC(N)=O)NC(=O)[C@H](CCCCN)NC(=O)[C@H](CCC(=O)O)NC2=O)[C@@H](C)CC)[C@@H](C)CC)[C@@H](C)O)NC(=O)[C@H]([C@@H](C)CC)NC(=O)[C@H](CCC(=O)O)NC(=O)[C@H](CCCNC(=N)N)NC1=O)[C@@H](C)O [SAH-gp41(626-662)(B, F)] (Ac-[Nle]TW[Nle]EW[S5]REI[S5]NYTSLIHSLIEESQNQ[S5]EKN[S5]QELLE-NH2; staple 7-11, 28-32)
Half-Life (chymotrypsin): 21.2 h | anti-HIV-1 (anti-viral) activity, in words [1]: relatively impaired anti-viral activity | half-life at 25 μM (pepsin; pepsin (isolated protease) in buffer, pH 2): 15.5 h

SEQ ID NO:135: i, i+4 singly stapled SAH-MPER peptide stapled in a similar position (ELDKWASLWNWFNITN[S5]LWY[S5]K-NH2; staple 17-21)
competition for 4E10 antibody binding, in words (4E10 antibody): superior to the wild-type MPER peptide

SEQ ID NO:136: i, i+3 singly stapled SAH-MPER peptide (ELDKWASLWNWFNITN[S5]LW[S5]IK-NH2; staple 17-20)
competition for 4E10 antibody binding, in words (4E10 antibody): compete more effectively for binding than an i, i+4 stapled peptide stapled in a similar position; also recorded: superior to the wild-type MPER peptide

Sifuvirtide
Half-Life (Chymotrypsin, pH 7 [2]): 2 min

enfuvirtide [listing 1 of 2 here]
Half-Life (Chymotrypsin, pH 7 [3]): 16.73 h | anti-HIV-1 (anti-viral) activity, in words [1]: relatively impaired anti-viral activity | Half-life (minutes), pepsin (pepsin): 3320 min

enfuvirtide [listing 2 of 2 here]
functional activity against HR1 double-mutant HIV-1, in words [4]: no functional activity | % helicity at pH 2 ([5]; pH 2): 49% | % helicity at pH 7 ([5]; pH 7): 19% | calculated α-helical content ([5]; physiologic pH): ~25% | Half-life (minutes), pepsin (pepsin): 4 min
